In one data set the target is H-PGDS (Homo sapiens (Human), UniProt O60760). Briefly: H-PGDS Fluorescence Polarization Binding Assay (FPBA). Conditions: H-PGDS-MBP fusion enzyme, fluorescent probe, reduced glutathione 5 mM, 60-90 minutes at room temperature, 96-well format. As for the experimental part:
H-PGDS Fluorescence Polarization Binding Assay This assay essentially is available from Cayman Chemical Company as Catalog item #600007. The test data reported for the aforementioned Examples (H-PGDS FPBA IC50) were generated using a 96-well, instead of the 384-well, format. […] Assays were performed in 96-well microtiter plates in 100 μL of total sample volume. Excitation and emission wavelengths appropriate for the employed detection analyte were used. […] Twelve clean microfuge tubes were labeled A1 through A12. […] Dimethyl sulfoxide (50 μL) was added to each of tubes A1 through A11. The HQL-79 control solution was serially diluted by removing 50 μL from tube A12 and placing it in tube A11 with subsequent thorough mixing of the contents of tube A11. Next, 50 μL was removed from tube A11 and was placed into tube A10 with subsequent thorough mixing of the contents of tube A10. This process was repeated for tubes A9 through A2. […] A test compound may be dissolved in DMSO, ethanol, or methanol at several concentrations when the titration endpoint is unknown. […] Assay cocktail (95 μL) was added to each plate well. DMSO (5 μL) from microfuge tube A1 was added to each plate well A1 and B1. Positive control solution (5 μL) from microfuge tube A2 was added to each plate well A2 and B2. Positive control solution (5 μL) from microfuge tube A3 was added to each plate well A3 and B3. This procedure was continued until all the positive control standard dilutions were aliquoted. Test compound solutions (5 μL) were added to the wells. […] The IC50 for a particular test compound was obtained by performing a full concentration titration versus a full concentration titration of positive control. Comparison of a single concentration of a test compound to the maximum binding well provided an assessment of the relative affinity of the test compound for H-PGDS-MBP. The plate was covered and incubated for 60-90 minutes at room temperature. The FP signal is stable for at least two hours. […] The measurements were taken in the fluorescent polarization mode with the z-height set to the middle of the well and the G-factor set to 1.13 on a Tecan Safire 2 reader.
Background: Fluorescence polarisation rises when a labelled molecule tumbles more slowly, as on binding a larger partner.

A value given as a limit tells only on which side of the number the result lay.

Sequence of H-PGDS (O60760 whole entry, the tested form may be a part): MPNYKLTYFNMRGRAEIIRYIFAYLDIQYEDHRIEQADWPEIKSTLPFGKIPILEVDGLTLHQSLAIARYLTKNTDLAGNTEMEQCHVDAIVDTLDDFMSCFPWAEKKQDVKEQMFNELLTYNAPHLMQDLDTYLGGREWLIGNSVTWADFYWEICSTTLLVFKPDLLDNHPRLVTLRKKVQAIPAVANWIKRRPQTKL

What is called melting point is the temperature, or range, at which the solid turns liquid. By IC50 is commonly meant the concentration that gives 50% inhibition. Low readings indicate inhibition by little substance, high ones a need for much substance. `c1ccc(-c2ncc(-c3cnc(C4CCCNC4)[nH]3)cn2)cc1` (racemic) [Example 22, (±)-2-phenyl-5-(2-(piperidin-3-yl)-1H-imidazol-5-yl)pyrimidine] displayed a melting point of 140 °C. Also, the IC50 at H-PGDS was found to be 1250 nM.
In the same order, the values of `c1ccc(Cn2cnc(-c3cnc(-c4ccccc4)nc3)c2)cc1` [Example 34, 5-(1-benzyl-1H-imidazol-4-yl)-2-phenylpyrimidine] are 195 °C and 4000 nM.
In the same order, the values of `c1ccc(-c2ncc(-c3cnc(-c4ccccc4)o3)cn2)cc1` [Example 46, 2-phenyl-5-(2-phenylpyrimidin-5-yl)oxazole] are 228 to 231 °C and 125000 nM.
In the same order, the values of `Cl.c1ccc(-c2ncc(-c3cc[nH]n3)cn2)cc1` [Example 41, 2-phenyl-5-(1H-pyrazol-3-yl)pyrimidine hydrochloride] are 264 to 273 °C and 2400 nM.
In the case of `c1ccc(-c2ncc(-c3cnc(CCc4cccnc4)[nH]3)cn2)cc1` [Example 16, 2-phenyl-5-(2-(2-(pyridin-3-yl)ethyl)-1H-imidazol-5-yl)pyrimidine], the melting point came to 113 °C. The same molecule gave an IC50 on H-PGDS of 300 nM.
`c1ccc(Cn2cncc2-c2cnc(-c3ccccc3)nc2)cc1` [Example 33, 5-(1-benzyl-1H-imidazol-5-yl)-2-phenylpyrimidine] gave a melting point of 140 °C. In addition, the IC50 at H-PGDS was found to be 2000 nM.
In the same order, the values of `O=C(c1cccnc1)N1CCC(c2nc(-c3cnc(-c4ccccc4)nc3)c[nH]2)CC1` [Example 20, (4-(4-(2-phenylpyrimidin-5-yl)-1H-imidazol-2-yl)piperidin-1-yl)(pyridin-3-yl)methanone] are 234 °C and 450 nM.
Molecule `CC(C)(C)OC(=O)N1CCCC(c2ncc(-c3cnc(-c4ccccc4)nc3)[nH]2)C1` (racemic) [Example 21, (±)-tert-butyl 3-(5-(2-phenylpyrimidin-5-yl)-1H-imidazol-2-yl)piperidine-1-carboxylate] registered a melting point of 130 °C. On H-PGDS, this molecule came in with an IC50 of 200 nM.
Consider `c1ccc(-c2ncc(-c3csc(-c4ccccc4)n3)cn2)cc1` [Example 48, 2-phenyl-4-(2-phenylpyrimidin-5-yl)thiazole], for which the melting point fell in the range of 214.4 to 216.1 °C. The same molecule showed an IC50 on H-PGDS greater than 20000 nM.
The like results for `c1ccc(-c2ncc(-c3ncc(-c4ccccc4)[nH]3)cn2)cc1` [Example 44, 2-phenyl-5-(5-phenyl-1H-imidazol-2-yl)pyrimidine] were, in that order, 238 °C and 2800 nM.
The like results for `c1ccc(-c2ncc(-c3nnc(-c4cccnc4)[nH]3)cn2)cc1` [Example 50, 2-phenyl-5-(5-(pyridin-3-yl)-1H-1,2,4-triazol-3-yl)pyrimidine] were, in that order, 322 to 333 °C and 1000 nM.
The molecule `c1ccc(-c2ncc(-c3nnn[nH]3)cn2)cc1` [Example 43, 2-phenyl-5-(1H-tetrazol-5-yl)pyrimidine] showed a melting point of 237 °C. The IC50 on H-PGDS is 2500 nM.

Values taken from patent US9126973B2, “Multiheteroaryl compounds as inhibitors of H-PGDS and their use for treating prostaglandin D2 mediated diseases” (Cayman Chemical Company, Incorporated, priority 2008, dated 2015).
